The values below come from patent US20060141546A1, “Bacterial test method by glycated label binding” (priority 2002, published 2006).

For data set [1] the following is noted: buffers for ALP determinations; cited from earlier work.
Data set [2] has as its system bacteria. Kind of data set: ALP binding to bacteria in presence of carbohydrates, polysaccharides, glycopeptides and lectins (Example 5). Particulars: 15 μg additive with ALP. The procedure:
(§1) Bacterial cells (1 to 4.5×10^7 cells/mL) were washed twice with water after centrifugation to separate cells into a packed pellet from the supernatant liquid. The washed cells in pellet form were suspended in 20 μl of EPPS buffer (50 mM at pH 8.0) and 30 μL of water. Hemoglobin (20 μg) was added as a blocking additive. Alkaline phosphatase (ALP) (100 mUnits) from bovine intestine and 15 μg of simple carbohydrates or proteoglycan or lectins, were added.
(§2) The mixture of glycated protein and bacterial cells was left at 25° C. for 15 minutes. The mixture was then centrifuged at 30,000 rpm for 30 minutes after which the bacterial cells formed a pellet at the bottom of the tube and were washed with water 4-5 times (50 μL). Centrifugation allows separation of glycoprotein bound to the bacteria cells from unbound glycated protein(s).
(§3) After washing, the bacterial pellets were suspended in 50 μL of sodium tetraborate buffer (25 mM at pH 9.5). A 5 uL aliquot of the suspension was assayed for detection of ALP binding by adding 5 μL of para-nitrophenol phosphate (PNPP, 100 mM), 50 μL sodium borate buffer (25 mM at pH 9.0) and 140 μL of water. […] The color is read at 405 nm using a ELISA plate reader between 15-30 min and the absorbance is directly proportional to the amount of ALP bound to the bacteria cell adhesions for glycated groups.

For another data set, the system named is E. coli. As to the kind of experiment: ALP binding to bacteria in presence of carbohydrates, polysaccharides, glycopeptides and lectins (Example 5, Table 3). Particulars: ALP 100 mUnits plus 15 μg of additive. As to the method:
as §1, §2, §3

The next data set concerns S. faec. The data set is described as above. Particulars: ALP 100 mUnits plus 15 μg of additive. The procedure: as §1, §2, §3
Data set [3] has as its system bacteria. As to the kind of experiment: Bacteria assay by binding of ALP iso-forms (Example 4, FIG. 10). Particulars: for binding of ALP iso-forms to bacteria: 100 mUnits ALP, hemoglobin blocking. The procedure:
Bacterial cells (1 to 4.5×10^7 cells/mL) were washed twice with water after centrifugation to separate cells into a packed pellet from the supernatant liquid. The washed cells in pellet form were suspended in 20 μL of EPPS buffer (50 mM at pH 8.0) and 30 μL of water. Hemoglobin (20 μg) was added as a blocking additive. Alkaline phosphatase (ALP) (100 mUnits) from intestine, placenta, and bacteria sources were added.
as §2
After washing, the bacterial pellets were suspended in 50 μl of sodium tetraborate buffer (25 mM at pH 9.5). A 5 μL aliquot of the suspension was assayed for detection of ALP binding by adding 5 μL of para-nitrophenol phosphate (PNPP, 100 mM), 50 μL sodium borate buffer (25 mM at pH 9.0) and 140 μL of water. […] The color is read at 405 nm using an ELISA plate reader between 15-30 min and the absorbance is directly proportional to the amount of ALP bound to the bacteria-cell adhesions for glycated groups. The results are illustrated in FIG. 10.

Data set [4] can be described thus: ALP activity of different sources in glycine buffer (Example 9, FIGS. 15-16). Type of data set: biochemical. As to conditions: assayed in glycine buffer.

One may read the pKa as the pH at which an ionisable group is half protonated.

In the case of `CC(N)(CO)CO` [2-amino-2-methyl-1,3-propanediol], the pKa in data set [1] is given as 8.6.
In the case of `CC(C)(N)CO` [2-amino-2-methyl-1-propanol], in data set [1], the pKa is given as 9.3.
Turning to `OC[C@H]1O[C@@H](O)[C@H](O)[C@@H](O)[C@@H]1O` [Glucose, β-D-Glucose], the “effect on bacteria binding of ALP (in words)” value (“effect on bacteria binding” for short) with bacteria [2] is reported as “did not produce any effect”. Further, the “absorbance (405 nm) of ALP bound to bacteria” value amounted to 1.8 in the data set on E. coli and 2.4 in the data set with S. faec..
As for `CCC1(CC)C(=O)NC(=O)NC1=O` [barbital], the pKa in data set [1] is 7.44.
As for `OCCNCCO` [diethanolamine], the pKa in data set [1] is 8.7.
For Lipopolysaccharide, the “effect on bacteria binding” value with bacteria [2] is reported as “without any effect”. The “absorbance (405 nm) of ALP bound to bacteria” value in the data set with E. coli is given as 1.8; in the data set with S. faec., 2.0.
As for Lipoteichoic acid, the “effect on bacteria binding” value in the data set with bacteria [2] is listed as “strongly inhibits”. Also, the “absorbance (405 nm) of ALP bound to bacteria” value in the data set with E. coli and in the data set with S. faec. was 0.2 each time.
With “bacterial ALP: Alkaline phosphatase from bacteria sources; lacks glycophospholipid”, in the data set with bacteria [3], the “binding of ALP iso-forms to bacteria” value is on record as “binds bacteria”.

B1: placenta ALP: Alkaline phosphatase from placenta (protein, UniProt P05187 23-506, looked up)
Alkaline phosphatase, …: IIPVEEENPDFWNREAAEALGAAKKLQPAQTAAKNLIIFLGDGMGVSTVTAARILKGQKKDKLGPEIPLAMDRFPYVALSKTYNVDKHVPDSGATATAYLCGVKGNFQTIGLSAAARFNQCNTTRGNEVISVMNRAKKAGKSVGVVTTTRVQHASPAGTYAHTVNRNWYSDADVPASARQEGCQDIATQLISNMDIDVILGGGRKYMFRMGTPDPEYPDDYSQGGTRLDGKNLVQEWLAKRQGARYVWNRTELMQASLDPSVTHLMGLFEPGDMKYEIHRDSTLDPSLMEMTEAALRLLSRNPRGFFLFVEGGRIDHGHHESRAYRALTETIMFDDAIERAGQLTSEEDTLSLVTADHSHVFSFGGYPLRGSSIFGLAPGKARDRKAYTVLLYGNGPGYVLKDGARPDVTESESGSPEYRQQSAVPLDEETHAGEDVAVFARGPQAHLVHGVQEQTFIAHVMAFAACLEPYTACDLAPPAGTTD
In the case of B1, the “ALP activity compared with other sources” value in data set [4] is listed as “comparable to ALP from other sources”. The “binding of ALP iso-forms to bacteria” value in the data set on bacteria [3] is reported as “lowest binding to bacteria”. Besides, in the data set on bacteria [3] (PNPP), the “enzyme activity of ALP iso-forms” value is reported as “lowest enzyme activity”.
